In patent US7893077B2, “Bisaryl-sulfonamides” (Amgen Inc., priority 2004, dated 2011):

target: T1, PPARγ (Homo sapiens, UniProt P37231); experiment: PPARγ ligand binding assay utilizing [3H]-BRL 49653 as the radioligand (filtration); details: concentration required to reduce by 50% the specific binding of [3H]-BRL 49653
T1 construct: made in house
T1 sequence (P37231 1-505): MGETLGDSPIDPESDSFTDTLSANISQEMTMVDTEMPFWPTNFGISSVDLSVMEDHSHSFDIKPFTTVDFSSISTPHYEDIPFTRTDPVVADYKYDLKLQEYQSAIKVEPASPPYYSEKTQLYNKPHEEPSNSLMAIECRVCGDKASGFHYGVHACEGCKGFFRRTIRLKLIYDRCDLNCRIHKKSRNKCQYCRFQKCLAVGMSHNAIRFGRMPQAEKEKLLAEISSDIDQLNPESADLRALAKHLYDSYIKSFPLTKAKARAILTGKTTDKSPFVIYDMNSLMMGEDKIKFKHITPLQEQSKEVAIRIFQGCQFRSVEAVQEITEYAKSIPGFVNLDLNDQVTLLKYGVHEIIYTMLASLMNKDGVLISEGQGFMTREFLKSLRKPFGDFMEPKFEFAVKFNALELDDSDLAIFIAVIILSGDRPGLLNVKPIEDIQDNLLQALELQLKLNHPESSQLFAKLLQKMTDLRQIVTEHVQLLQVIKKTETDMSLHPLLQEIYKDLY
Description: The compounds of the present invention can be evaluated for modulation of the PPARγ receptor using assays such as those described in Jiang, et al., Nature 391:82-86 (1998), Ricote, et al., Nature 391:79-82 (1998) and Lehmann, et al., J. Biol. Chem. 270(12): 12953-12956 (1995). Alternatively, the compounds can be evaluated for their ability to displace radiolabeled BRL 49653 from a PPARγ-GST fusion protein as follows:
PPARγ-GST fusion protein (prepared according to standard procedures), [^3H]-BRL 49653 having 50 Ci/mmol specific activity, Polyfiltronics Unifilter 350 filtration plate and glutathione-Sepharose® beads (from Pharmacia: washed twice with 10× binding buffer in which BSA and DTI can be left out).
Binding buffer (10 mM Tris-HCl, pH 8.0, 50 mM KCl, 10 mM DTT, 0.02% BSA and 0.0 1% NP-40) is added in 80-μL amounts to the wells of the filtration plate. The test compound is then added in 10 μL of DMSO. The PPARγ-GST fusion protein and radiolabeled BRL compound are premixed in binding buffer containing 10 mM DTT and added in 10-μL amounts to the wells of the plate to provide final concentrations of 1 µg/well of PPARγ-GST fusion protein and 10 nM [^3H]-BRL 49653 compound. The plate is incubated for 15 min. Glutathione-agarose bead is added in 50 μL of binding buffer, and the plate is vigorously shaken for one hour. The plate is washed four times with 200 μL/well of binding buffer (without BSA and DTT). The bottom of the plate is sealed and 200 μL/well of scintillation cocktail is added. The top of the plate is then sealed and the radioactivity is determined.
IC50 values are defined as the concentration of test compounds required to reduce by 50% the specific binding of [^3H]-BRL 49653 and are represented by (+)<30 μM; (++)<10 μM; (+++)<1 μM.

SMILES	IC50 [µM]
CCCNc1nc(NS(=O)(=O)c2ccc(Cl)cc2)ncc1Oc1ccc(S(=O)(=O)N2CCOCC2)cc1 [Compound 24, 4-Chloro-N-{5-[4-(morpholine-4-sulfonyl)-phenoxy]-4-propylamino-pyrimidin-2-yl}-benzenesulfonamide]	< 10
Cc1cc(NS(=O)(=O)c2ccc(C(F)(F)F)cc2Cl)ncc1Sc1ccc(S(=O)(=O)N2CCOCC2)cc1 [Compound 74, 2-Chloro-N-{4-methyl-5-[4-(morpholine-4-sulfonyl) -phenylsulfanyl]-pyridin-2-yl}-4-trifluoromethyl-benzenesulfonamide]	< 1
Cc1nc(NS(=O)(=O)c2ccc(Cl)cc2Cl)ncc1Sc1ccc2ccccc2c1 [Compound 57, 2,4-Dichloro-N-[4-methyl-5-(naphthalen-2-ylsulfanyl)-pyrimidin-2-yl]-benzenesulfonamide]	< 10
CCC(CC)Nc1nc(NS(=O)(=O)c2ccc(Cl)cc2Cl)ncc1Sc1ccc(S(=O)(=O)N2CCCCC2)cc1 [Compound 18, 2,4-Dichloro-N-{4-(1-ethyl-propylamino)-5-[4-(piperidine-1-sulfonyl)-phenylsulfanyl]-pyrimidin-2-yl}-benzenesulfonamide]	< 30
O=C(c1nc(NS(=O)(=O)c2ccc(C(F)(F)F)cc2Cl)ccc1Sc1ccc(S(=O)(=O)N2CCCCC2)cc1)C1CC1 [Compound 89, 2-Chloro-N-{6-cyclopropanecarbonyl-5-[4-(piperidine-1-sulfonyl)-phenylsulfanyl]-pyridin-2-yl}-4-trifluoromethyl-benzenesulfonamide]	< 1
CCCOc1nc(NS(=O)(=O)c2ccc(Cl)cc2)ncc1Oc1ccc(S(=O)(=O)N2CCOCC2)cc1 [Compound 29, 4-Chloro-N-{5-[4-(morpholine-4-sulfonyl)-phenoxy]-4-propoxy-pyrimidin-2-yl}-benzenesulfonamide]	< 10
Cc1cc(NS(=O)(=O)c2ccc(Cl)cc2Cl)ncc1Sc1ccc(S(=O)(=O)N2CCOCC2)cc1 [Compound 75, 2,4-Dichloro-N-{4-methyl-5-[4-(morpholine-4-sulfonyl) -phenylsulfanyl]-pyridin-2-yl}-benzenesulfonamide]	< 1
Cc1cc(S(=O)(=O)Nc2ccc(Sc3ccc(S(=O)(=O)N4CCCCC4)cc3)c(C)n2)c(Cl)cc1Cl [Compound 61, 2,4-Dichloro-5-methyl-N-{6-methyl-5-[4-(piperidine-1-sulfonyl)-phenylsulfanyl]-pyridin-2-yl}-benzenesulfonamide]	< 1
Cc1nc(NS(=O)(=O)c2ccc(Cl)cc2Cl)ncc1Oc1ccc(S(=O)(=O)N2CCOCC2)cc1 [Compound 54, 2,4-Dichloro-N-{4-methyl-5-[4-(morpholine-4-sulfonyl) -phenoxy]-pyrimidin-2-yl}-benzenesulfonamide]	< 30
Cc1nc(NS(=O)(=O)c2ccc(Cl)cc2)ncc1Oc1ccc(S(=O)(=O)N2CCOCC2)cc1 [Compound 56, 4-Chloro-N-{4-methyl-5-[4-(morpholine-4-sulfonyl) -phenoxy]-pyrimidin-2-yl}-benzenesulfonamide]	< 30
Cc1nc(NS(=O)(=O)c2ccc(Cl)cc2Cl)ncc1Sc1ccc(S(=O)(=O)N2CCCCC2)cc1 [Compound 49, 2,4-Dichloro-N-{4-methyl-5-[4-(piperidine-1-sulfonyl) -phenylsulfanyl]-pyrimidin-2-yl}-benzenesulfonamide]	< 10
COCCNc1nc(NS(=O)(=O)c2ccc(Cl)cc2Cl)ncc1Sc1ccc(S(=O)(=O)N2CCCCC2)cc1 [Compound 16, 2,4-Dichloro-N-{4-(2-methoxy-ethylamino)-5-[4-(piperidine-1-sulfonyl)-phenylsulfanyl]-pyrimidin-2-yl}-benzenesulfonamide]	< 1

Now from value to compound:

IC50 [µM]	SMILES
< 1	CCCC(=O)c1nc(NS(=O)(=O)c2ccc(C(F)(F)F)cc2Cl)ccc1Sc1ccc(S(=O)(=O)NCC)cc1 [Compound 120, N-[6-Butyryl-5-(4-ethylsulfamoyl-phenylsulfanyl)-pyridin-2-yl]-2-chloro-4-trifluoromethyl-benzenesulfonamide]
< 1	CCCCCOC(=O)c1cc(NS(=O)(=O)c2ccc(Cl)cc2Cl)ncc1Sc1ccc(S(=O)(=O)N2CCCCC2)cc1 [Compound 126, 2-(2,4-Dichloro-benzenesulfonylamino)-5-[4-(piperidine-1-sulfonyl)-phenylsulfanyl]-isonicotinic acid pentyl ester]
< 1	CCCCc1nc(NS(=O)(=O)c2ccc(C(F)(F)F)cc2Cl)ccc1Sc1ccc(S(=O)(=O)N2CCOCC2)cc1 [Compound 125, N-{6-Butyl-5-[4-(morpholine-4-sulfonyl)-phenylsulfanyl]-pyridin-2-yl}-2-chloro-4-trifluoromethyl-benzenesulfonamide]
< 1	CCCCc1cc(NS(=O)(=O)c2ccc(Cl)cc2Cl)nnc1Sc1ccc(S(=O)(=O)C2CCCC2)cc1 [Compound 133, 3-(2′,4′-dichloro)phenylsulfonylamino-5-n-butyl-6-(4″-cyclopentanesulfonyl)phenylthiopyridazine]
< 1	CCCC(=O)c1nc(NS(=O)(=O)c2ccc(C(F)(F)F)cc2Cl)ccc1Sc1ccc(S(=O)(=O)C2CCOCC2)cc1 [Compound 101, N-{6-Butyryl-5-[4-(tetrahydro-pyran-4-sulfonyl)-phenylsulfanyl]-pyridin-2-yl}-2-chloro-4-trifluoromethyl-benzenesulfonamide]
< 1	CCCCc1nc(NS(=O)(=O)c2ccc(Cl)cc2Cl)ccc1Sc1ccc(S(=O)(=O)N2CCOCC2)cc1 [Compound 124, N-{6-Butyl-5-[4-(morpholine-4-sulfonyl)-phenylsulfanyl]-pyridin-2-yl}-2,4-dichloro-benzenesulfonamide]
< 10	O=S(=O)(Nc1ccc(Sc2ccc(S(=O)(=O)N3CCOCC3)cc2)c(C(F)(F)F)n1)c1ccc(C(F)(F)F)cc1Cl [Compound 109, 2-Chloro-N-{5-[4-(morpholine-4-sulfonyl)-phenylsulfanyl]-6-trifluoromethyl-pyridin-2-yl}-4-trifluoromethyl-benzenesulfonamide]
< 1	CCCC(=O)c1nc(NS(=O)(=O)c2ccc(Cl)cc2Cl)ccc1Sc1ccc(S(=O)(=O)C(C)C)cc1 [Compound 106, N-{6-Butyryl-5-[4-(propane-2-sulfonyl)-phenylsulfanyl]-pyridin-2-yl}-2,4-dichloro-benzenesulfonamide]
< 10	CCCOc1nc(NS(=O)(=O)c2ccc(C(F)(F)F)cc2Cl)ccc1Sc1ccc(S(=O)(=O)N2CCCCC2)cc1 [Compound 110, 2-Chloro-N-{5-[4-(piperidine-1-sulfonyl)-phenylsulfanyl]-6-propoxy-pyridin-2-yl}-4-trifluoromethyl-benzenesulfonamide]
< 1	CCCC(=O)c1nc(NS(=O)(=O)c2ccc(C(F)(F)F)cc2Cl)ccc1Sc1ccc(S(=O)(=O)N2CCCC2)cc1 [Compound 97, N-{6-Butyryl-5-[4-(pyrrolidine-1-sulfonyl)-phenylsulfanyl]-pyridin-2-yl}-2-chloro-4-trifluoromethyl-benzenesulfonamide]
< 10	Cc1cc(Sc2ccc(S(=O)(=O)N3CCCCC3)cc2)nnc1NS(=O)(=O)c1ccc(C(F)(F)F)cc1Cl [Compound 137, 2-Chloro-N-{4-methyl-6-[4-(piperidine-1-sulfonyl) -phenylsulfanyl]-pyridazin-3-yl}-4-trifluoromethyl-benzenesulfonamide]
< 1	Cc1nc(NS(=O)(=O)c2ccc(C(F)(F)F)cc2Cl)ccc1Sc1ccc(S(=O)(=O)N2CCOCC2)cc1 [Compound 103, 2-Chloro-N-{6-methyl-5-[4-(morpholine-4-sulfonyl) -phenylsulfanyl]-pyridin-2-yl}-4-trifluoromethyl-benzenesulfonamide]
< 10	CCC(CC)S(=O)(=O)c1ccc(Sc2ccc(NS(=O)(=O)c3ccc(C(F)(F)F)cc3Cl)nc2C(=O)C2CC2)cc1 [Compound 117, 2-Chloro-N-{6-cyclopropanecarbonyl-5-[4-(pentane-3-sulfonyl)-phenylsulfanyl]-pyridin-2-yl}-4-trifluoromethyl-benzenesulfonamide]
